According to ChEMBL document CHEMBL1201862, “PubChem BioAssay data set” (2004):
Where “and” joins values, the source holds several entries; their conditions need not be identical. Equal entries are not always repeated.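 Values below derive from 48-hour exposures of cells grown in 96-well plates, with endpoints linearly interpolated between the two concentrations bracketing the appropriate inhibition level. GI50: concentration for 50% inhibition of growth.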 Calls of active or inactive are those of the source. Cut-off read from the data, not from the text of the source: active = GI50 up to about 1.1 µM and inactive = higher.

Key:
Assay in all cases: NCI anticancer screen, dose series, 48 h
786-0 = tested on: 786-0
A498 = tested on: A498
ACHN = tested on: ACHN
BT-549 = tested on: BT-549
CAKI-1 = tested on: CAKI-1
CCRF-CEM = tested on: CCRF-CEM
COLO 205 = tested on: COLO 205
DU-145 = tested on: DU-145
EKVX = tested on: EKVX
HCT-116 = tested on: HCT-116
HCT-15 = tested on: HCT-15
HL-60 = tested on: HL-60
HT-29 = tested on: HT-29
Hs-578T = tested on: Hs-578T
IGROV-1 = tested on: IGROV-1
K562 = tested on: K562
KM12 = tested on: KM12
LOX IMVI = tested on: LOX IMVI
M14 = tested on: M14
MCF7 = tested on: MCF7
MDA-MB-231 = tested on: MDA-MB-231
MDA-MB-435 = tested on: MDA-MB-435
MDA-N = tested on: MDA-N
MOLT-4 = tested on: MOLT-4
Malme-3M = tested on: Malme-3M
NCI-H226 = tested on: NCI-H226
NCI-H23 = tested on: NCI-H23
NCI/ADR-RES = tested on: NCI/ADR-RES
OVCAR-3 = tested on: OVCAR-3
OVCAR-5 = tested on: OVCAR-5
OVCAR-8 = tested on: OVCAR-8
PC-3 = tested on: PC-3
RPMI-8226 = tested on: RPMI-8226
RXF 393 = tested on: RXF 393
SF-268 = tested on: SF-268
SF-539 = tested on: SF-539
SK-MEL-28 = tested on: SK-MEL-28
SK-MEL-2 = tested on: SK-MEL-2
SK-MEL-5 = tested on: SK-MEL-5
SK-OV-3 = tested on: SK-OV-3
SN12C = tested on: SN12C
SNB-19 = tested on: SNB-19
SW-620 = tested on: SW-620
TK-10 = tested on: TK-10
U-251 = tested on: U-251
UACC-257 = tested on: UACC-257
UACC-62 = tested on: UACC-62
UO-31 = tested on: UO-31
A549 = tested on: A549
HOP-62 = tested on: HOP-62
NCI-H460 = tested on: NCI-H460
NCI-H522 = tested on: NCI-H522
OVCAR-4 = tested on: OVCAR-4
SF-295 = tested on: SF-295
SNB-75 = tested on: SNB-75
HCC 2998 = tested on: HCC 2998
HOP-92 = tested on: HOP-92
SR = tested on: SR
T47D = tested on: T47D

Measured: GI50

O=C(c1ccco1)N(C(=O)N1CCCCC1)c1ccccc1
> 100 µM: HCT-15
inactive: 786-0 > 100 µM | A498 > 100 µM | ACHN > 100 µM | BT-549 > 100 µM | CAKI-1 > 100 µM | CCRF-CEM > 100 µM | COLO 205 > 100 µM | DU-145 > 100 µM | EKVX > 100 µM | HCT-116 > 100 µM | HL-60 > 100 µM | HT-29 > 100 µM | Hs-578T > 100 µM | IGROV-1 > 100 µM | K562 > 100 µM | KM12 > 100 µM | LOX IMVI > 100 µM | M14 > 100 µM | MCF7 > 100 µM | MDA-MB-231 > 100 µM | MDA-MB-435 > 100 µM | MDA-N > 100 µM | MOLT-4 > 100 µM | Malme-3M 41.2 µM | NCI-H226 > 100 µM | NCI-H23 > 100 µM | NCI/ADR-RES > 100 µM | OVCAR-3 > 100 µM | OVCAR-5 > 100 µM | OVCAR-8 > 100 µM | PC-3 > 100 µM | RPMI-8226 > 100 µM | RXF 393 87.9 µM | SF-268 > 100 µM | SF-539 > 100 µM | SK-MEL-28 > 100 µM | SK-MEL-2 > 100 µM | SK-MEL-5 > 100 µM | SK-OV-3 > 100 µM | SN12C > 100 µM | SNB-19 > 100 µM | SW-620 > 100 µM | TK-10 > 100 µM | U-251 > 100 µM | UACC-257 > 100 µM | UACC-62 > 100 µM | UO-31 > 100 µM

COc1cc(/C=C2\CCC/C(=C\c3ccc(OC(=O)CCCCC4CCSS4)c(OC)c3)C2=O)ccc1OC(=O)CCCCC1CCSS1 (configuration not stated)
inactive: 786-0 > 100 µM | A498 > 100 µM | A549 > 100 µM | ACHN > 100 µM | BT-549 > 100 µM | CCRF-CEM 91.2 µM | COLO 205 > 100 µM | DU-145 > 100 µM | EKVX > 100 µM | HCT-116 > 100 µM | HL-60 > 100 µM | HOP-62 > 100 µM | HT-29 > 100 µM | Hs-578T > 100 µM | IGROV-1 > 100 µM | K562 > 100 µM | KM12 > 100 µM | LOX IMVI > 100 µM | M14 > 100 µM | MCF7 > 100 µM | MDA-MB-231 > 100 µM | MDA-MB-435 > 100 µM | MDA-N > 100 µM | MOLT-4 > 100 µM | Malme-3M > 100 µM | NCI-H226 > 100 µM | NCI-H23 > 100 µM | NCI-H460 > 100 µM | NCI-H522 > 100 µM | NCI/ADR-RES > 100 µM | OVCAR-3 > 100 µM | OVCAR-4 > 100 µM | OVCAR-5 > 100 µM | OVCAR-8 > 100 µM | PC-3 > 100 µM | RPMI-8226 > 100 µM | RXF 393 > 100 µM | SF-268 > 100 µM | SF-295 > 100 µM | SF-539 > 100 µM | SK-MEL-28 > 100 µM | SK-MEL-2 > 100 µM | SK-MEL-5 > 100 µM | SK-OV-3 > 100 µM | SN12C > 100 µM | SNB-19 > 100 µM | SNB-75 > 100 µM | SW-620 > 100 µM | TK-10 > 100 µM | U-251 > 100 µM | UACC-257 > 100 µM | UACC-62 > 100 µM | UO-31 > 100 µM
> 100 µM: HCT-15

O=C(/C=C/c1ccc(O)c([N+](=O)[O-])c1)CC(=O)/C=C/c1ccc(O)c([N+](=O)[O-])c1
inactive: 786-0 > 100 µM | A549 53.7 µM | ACHN > 100 µM | BT-549 > 100 µM | CCRF-CEM 30.5 µM | COLO 205 47.4 µM | DU-145 28.4 µM | EKVX 50.9 µM | HCT-116 41.6 µM | HL-60 21.7 µM | HOP-62 48.9 µM | HT-29 42.7 µM | Hs-578T > 100 µM | IGROV-1 24.9 µM | KM12 30.5 µM | LOX IMVI 14.4 µM | M14 65.8 µM | MCF7 53.5 µM | MDA-MB-231 23.4 µM | MDA-MB-435 36.1 µM | MDA-N 86.5 µM | NCI-H226 > 100 µM | NCI-H23 34.8 µM | NCI-H460 30.5 µM | NCI-H522 36.3 µM | NCI/ADR-RES 35.3 µM | OVCAR-3 26.6 µM | OVCAR-4 79.3 µM | OVCAR-5 44.9 µM | OVCAR-8 19.8 µM | PC-3 56.4 µM | RPMI-8226 14.4 µM | RXF 393 44.4 µM | SF-268 54.6 µM | SF-295 62.5 µM | SF-539 > 100 µM | SK-MEL-28 33.9 µM | SK-MEL-2 41.1 µM | SK-MEL-5 49.7 µM | SK-OV-3 83.2 µM | SN12C > 100 µM | SNB-19 88.9 µM | SNB-75 > 100 µM | SW-620 37.1 µM | TK-10 92.5 µM | U-251 21.4 µM | UACC-257 > 100 µM | UACC-62 88.1 µM | UO-31 > 100 µM
38.5 µM: HCT-15

N#CC1(C#N)NC(c2cccs2)C(C#N)(C#N)NC1c1cccs1 (configuration not stated)
30.7 µM: HCT-15
inactive: 786-0 39.9 µM | A498 20.5 µM | A549 50.8 µM | ACHN 25.4 µM | BT-549 21.2 µM | CAKI-1 58.6 µM | CCRF-CEM 22.2 µM | COLO 205 47.9 µM | DU-145 59.7 µM | EKVX 55.8 µM | HCC 2998 57.1 µM | HCT-116 30.5 µM | HL-60 17.1 µM | HOP-62 > 100 µM | HOP-92 23 µM | HT-29 47.3 µM | Hs-578T 43.2 µM | IGROV-1 30.3 µM | K562 22.4 µM | KM12 39.9 µM | LOX IMVI 19.7 µM | M14 31.3 µM | MCF7 12.2 µM | MDA-MB-231 80.9 µM | MDA-MB-435 46.1 µM | MOLT-4 23.3 µM | Malme-3M 41.9 µM | NCI-H226 53.1 µM | NCI-H23 55.1 µM | NCI-H460 37.3 µM | NCI-H522 23.1 µM | NCI/ADR-RES 77.3 µM | OVCAR-3 25.2 µM | OVCAR-4 43.7 µM | OVCAR-5 31.9 µM | OVCAR-8 54.7 µM | PC-3 27.4 µM | RPMI-8226 27.4 µM | RXF 393 31.7 µM | SF-268 35.5 µM | SF-295 52.5 µM | SF-539 19.9 µM | SK-MEL-28 29.6 µM | SK-MEL-2 14.2 µM | SK-MEL-5 26.7 µM | SK-OV-3 33.7 µM | SN12C 43.2 µM | SNB-19 55.2 µM | SNB-75 27.4 µM | SR 28.2 µM | SW-620 31.1 µM | T47D 51.2 µM | TK-10 > 100 µM | U-251 22.8 µM | UACC-257 > 100 µM | UACC-62 20.6 µM | UO-31 42.6 µM

CC(=O)c1c(-c2ccc(Cl)cc2)c(C#N)c(=S)n(C2OC(CO)C(O)C(O)C2O)c1-c1ccccc1 (configuration not stated)
inactive: ACHN 55.2 µM and 45.5 µM | BT-549 > 100 µM | CAKI-1 45.2 µM and > 89.1 µM | DU-145 > 100 µM and > 93.3 µM | HCC 2998 > 100 µM and > 83.8 µM | HT-29 > 100 µM and 52.1 µM | Hs-578T > 100 µM | IGROV-1 62.8 µM | KM12 > 100 µM and > 68.9 µM | M14 > 100 µM | MCF7 > 100 µM and > 71 µM | MDA-MB-435 77.6 µM | MDA-N 80.7 µM and 48.2 µM | Malme-3M > 100 µM | NCI-H226 61.4 µM | NCI-H23 > 100 µM | NCI-H522 > 100 µM and 53.8 µM | NCI/ADR-RES > 100 µM and 98.9 µM | OVCAR-3 > 80.4 µM and 64.9 µM | OVCAR-8 > 100 µM and > 57.3 µM | RPMI-8226 31.9 µM | RXF 393 83.4 µM and 75.5 µM | SF-268 89.3 µM and 61.5 µM | SF-295 > 100 µM and 70.6 µM | SK-MEL-28 82.2 µM | SK-OV-3 > 100 µM | SN12C > 100 µM and > 85.7 µM | SNB-75 14.7 µM | SW-620 59.6 µM | T47D > 82.6 µM | TK-10 > 100 µM | UACC-257 > 100 µM
